From patent US9505726B2, “Substituted biphenyl amides as P2X3 and P2X2/3 antagonists” (Roche Palo Alto LLC, priority 2009, dated 2016)

Each compound was assayed against T1, rat P2X3 receptor (Rattus norvegicus, UniProt P49654) (assay: P2X3 FLIPR (Fluorometric Imaging Plate Reader) assay). Conditions: CHO-K1 cells transfected with cloned rat P2X3; agonist α,β-meATP 1 μM; Fluo-3 AM calcium fluorescence.
T1 construct: expressed in transfected cells; host or cells: CHO-K1
T1 sequence (P49654 1-397): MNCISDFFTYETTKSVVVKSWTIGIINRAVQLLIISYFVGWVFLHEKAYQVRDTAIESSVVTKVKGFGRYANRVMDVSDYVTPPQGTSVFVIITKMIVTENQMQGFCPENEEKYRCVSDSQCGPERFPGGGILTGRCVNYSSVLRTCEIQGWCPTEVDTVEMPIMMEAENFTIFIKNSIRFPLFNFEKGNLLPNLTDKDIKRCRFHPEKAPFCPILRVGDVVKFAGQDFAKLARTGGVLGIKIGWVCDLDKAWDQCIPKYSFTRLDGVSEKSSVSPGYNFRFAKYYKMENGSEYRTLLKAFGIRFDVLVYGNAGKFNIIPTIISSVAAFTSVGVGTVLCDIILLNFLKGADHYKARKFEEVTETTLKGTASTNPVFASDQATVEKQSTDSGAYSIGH
Type: cell-based
Method: CHO-K1 cells were transfected with cloned rat P2X3 or human P2X2/3 receptor subunits and passaged in flasks. 18-24 hours before the FLIPR experiment, cells were released from their flasks, centrifuged, and resuspended in nutrient medium at 2.5×10^5 cells/ml. The cells were aliquoted into black-walled 96-well plates at a density of 50,000 cells/well and incubated overnight in 5% CO2 at 37° C. On the day of the experiment, cells were washed in FLIPR buffer (calcium- and magnesium-free Hank's balanced salt solution, 10 mM HEPES, 2 mM CaCl2, 2.5 mM probenecid; FB). Each well received 100 μl FB and 100 μl of the fluorescent dye Fluo-3 AM [2 μM final conc.]. After a 1 hour dye loading incubation at 37° C., the cells were washed 4 times with FB, and a final 75 μl/well FB was left in each well.
Test compounds (dissolved in DMSO at 10 mM and serially diluted with FB) or vehicle were added to each well (25 μl of a 4× solution) and allowed to equilibrate for 20 minutes at room temperature. The plates were then placed in the FLIPR and a baseline fluorescence measurement (excitation at 488 nm and emission at 510-570 nm) was obtained for 10 seconds before a 100 μl/well agonist or vehicle addition. The agonist was a 2X solution of α,β-meATP producing a final concentration of 1 μM (P2X3) or 5 μM (P2X2/3). Fluorescence was measured for an additional 2 minutes at 1 second intervals after agonist addition. A final addition of ionomycin (5 μM, final concentration) was made to each well of the FLIPR test plate to establish cell viability and maximum fluorescence of dye-bound cytosolic calcium. Peak fluorescence in response to the addition of α,β-meATP (in the absence and presence of test compounds) was measured and inhibition curves generated using nonlinear regression. PPADS, a standard P2X antagonist, was used as a positive control.

| P2X3 (pIC50 values for the P2X3 receptor) | Compound |
| --- | --- |
| 5.59 | COCC(C)NC(=O)c1cc(NC(=O)c2c(-c3ccccc3)noc2C)cc(-c2ccc(C)cc2)c1 (stereo not drawn) [Compound 12, 5-Methyl-3-phenyl-isoxazole-4-carboxylic acid [5-(2-methoxy-1-methyl-ethylcarbamoyl)-4′-mcthyl-biphenyl-3-yl]-amide] |
| 5.17 | CC(NC(=O)c1cc(-c2ccc(Cl)cc2)cc(N(C)C(=O)N2CCOCC2)c1)c1cnccn1 (stereo not drawn) [Compound 44, Morpholine-4-carboxylic acid [4′-chloro-5-(1-pyrazin-2-yl-ethylcarbamoyl)-biphenyl-3-yl]-methyl-amide] |
| 5.86 | Cc1ccc(-c2cc(C(=O)NC(C)c3cnccn3)cc(N(C)C(=O)C3CCOCC3)c2)cc1 (stereo not drawn) [Compound 43, Tetrahydro-pyran-4-carboxylic acid methyl-[4′-methyl-5-(1-pyrazin-2-yl-ethylcarbamoyl)-biphenyl-3-yl]-amide] |
| 5.62 | COCC(C)NC(=O)c1cc(NC(=O)c2ccccn2)cc(-c2ccc(C)cc2)c1 (stereo not drawn) [Compound 6, Pyridine-2-carboxylic acid [5-(2-methoxy-1-methyl-ethylcarbamoyl)-4′-methyl-biphenyl-3-yl]-amide] |
| 8.01 | Cc1ccc(-c2cc(C(=O)NC(C)c3cnccn3)cc(N(C)C(=O)C(C)(C)C)c2)cc1 (stereo not drawn) [Compound 32, 5-[(2,2-Dimethyl-propionyl)-methyl-amino]-4′-methyl-biphenyl-3-carboxylic acid (1-pyrazin-2-yl-ethyl)-amide] |
| 6.16 | CCC(=O)N(c1cc(C(=O)NC(C)c2cnccn2)cc(-c2ccc(C)cc2)c1)c1ccncn1 (stereo not drawn) [Compound 25, 4′-Methyl-5-(propionyl-pyrimidin-4-yl-amino)-biphenyl-3-carboxylic acid (1-pyrazin-2-yl-ethyl)-amide] |
| 7.55 | CCC(C)(C)C(=O)N(C)c1cc(C(=O)NC(C)c2cnccn2)cc(-c2ccc(C)cc2)c1 (stereo not drawn) [Compound 48, 5-[(2,2-Dimethyl-butyryl)-methyl-amino]-4′-methyl-biphenyl-3-carboxylic acid (1-pyrazin-2-yl-ethyl)-amide] |
| 5.9 | Cc1ccc(-c2cc(C(=O)NC(C)c3cnccn3)cc(N(C)C(=O)C3CCCCC3)c2)cc1 (stereo not drawn) [Compound 52, 5-(Cyclohexanecarbonyl-methyl-amino)-4′-methyl-biphenyl-3-carboxylic acid (1-pyrazin-2-yl-ethyl)-amide] |
| 5.4 | CCN(C(=O)c1ccncc1)c1cc(C(=O)NC(C)COC)cc(-c2ccc(C)cc2)c1 (stereo not drawn) [Compound 28, N-Ethyl-N-[5-(2-methoxy-1-methyl-ethylcarbamoyl)-4′-methyl-biphenyl-3-yl]-isonicotinamide] |
| 6.26 | CC(NC(=O)c1cc(-c2ccc(Cl)cc2)cc(N(C)C(=O)N(C)C)c1)c1cnccn1 (stereo not drawn) [Compound 57, 4′-Chloro-5-(trimethyl-ureido)-biphenyl-3-carboxylic acid (1-pyrazin-2-yl-ethyl)-amide] |
| 6.63 | CC(C)C(=O)N(C)c1cc(C(=O)NC(C)c2cnccn2)cc(-c2ccc(F)cc2F)c1 (stereo not drawn) [Compound 66, 2′,4′-Difluoro-5-(isobutyryl-methyl-amino)-biphenyl-3-carboxylic acid (1-pyrazin-2-yl-ethyl)-amide] |
| 6.99 | Cc1ccc(-c2cc(C(=O)NC(C)c3cnccn3)cc(N(C(=O)C(C)C)c3ccncn3)c2)cc1 (stereo not drawn) [Compound 26, 5-(Isobutyryl-pyrimidin-4-yl-amino)-4′-methyl-biphenyl-3-carboxylic acid (1-pyrazin-2-yl-ethyl)-amide] |
| 7.5 | CC(C)C(=O)N(C)c1cc(C(=O)NC(C)c2cnccn2)cc(-c2ccc(Cl)cc2Cl)c1 (stereo not drawn) [Compound 64, 2′,4′-Dichloro-5-(isobutyryl-methyl-amino)-biphenyl-3-carboxylic acid (1-pyrazin-2-yl-ethyl)-amide] |
| 6.69 | COCC(=O)N(C)c1cc(C(=O)NC(C)c2cnccn2)cc(-c2ccc(C)cc2)c1 (stereo not drawn) [Compound 22, 5-[(2-Methoxy-acetyl)-methyl-amino]-4′-methyl-biphenyl-3-carboxylic acid (1-pyrazin-2-yl-ethyl)-amide] |
| 5.35 | CCC(=O)N(C)c1cc(C(=O)NC(C)COC)cc(-c2ccc(C)cc2)c1 (stereo not drawn) [Compound 18, 4′-Methyl-5-(methyl-propionyl-amino)-biphenyl-3-carboxylic acid (2-methoxy-1-methyl-ethyl)-amide] |
| 7.37 | CCC(C)C(=O)N(C)c1cc(C(=O)N[C@@H](C)CO)cc(-c2ccc(C)cc2)c1 (stereo partly drawn) [Compound 53, 4′-Methyl-5-[methyl-(2-methyl-butyryl)-amino]-biphenyl-3-carboxylic acid ((S)-2-hydroxy-1-methyl-ethyl)-amide] |
| 7.28 | CCN(C(=O)OC)c1cc(C(=O)NC(C)c2cnccn2)cc(-c2ccc(C)cc2)c1 (stereo not drawn) [Compound 39, Ethyl-[4′-methyl-5-(1-pyrazin-2-yl-ethylcarbamoyl)-biphenyl-3-yl]-carbamic acid methyl ester] |
| 8.25 | Cc1ccc(-c2cc(C(=O)NC(C)c3cnccn3)cc(N(C)C(=O)C(C)C)c2)c(F)c1 (stereo not drawn) [Compound 58, 2′-Fluoro-5-(isobutyryl-methyl-amino)-4′-methyl-biphenyl-3-carboxylic acid (1-pyrazin-2-yl-ethyl)-amide] |
| 6.29 | Cc1ccc(-c2cc(C(=O)NC(C)c3cnccn3)cc(N(C)C(=O)C(C)C)c2)c(Cl)c1 (stereo not drawn) [Compound 54, 2′-Chloro-5-(isobutyryl-methyl-amino)-4′-methyl-biphenyl-3-carboxylic acid (1-pyrazin-2-yl-ethyl)-amide] |
| 8.11 | CCN(C(=O)C(C)C)c1cc(C(=O)NC(C)c2cnccn2)cc(-c2ccc(C)cc2)c1 (stereo not drawn) [Compound 38, 5-(Ethyl-isobutyryl-amino)-4′-mcthyl-biphenyl-3-carboxylic acid (1-pyrazin-2-yl-ethyl)-amide] |
| 5.38 | CCNC(=O)N(C)c1cc(C(=O)NC(C)c2cnccn2)cc(-c2ccc(Cl)cc2)c1 (stereo not drawn) [Compound 45, 4′-Chloro-5-(3-ethyl-1-methyl-ureido)-biphenyl-3-carboxylic acid (1-pyrazin-2-yl-ethyl)-amide] |
| 5.56 | COCC(C)NC(=O)c1cc(NC(=O)c2cscn2)cc(-c2ccc(C)cc2)c1 (stereo not drawn) [Compound 11, Thiazole-4-carboxylic acid [5-(2-methoxy-1-methyl-ethylcarbamoyl)-4′-methyl-biphenyl-3-yl]-amide] |
| 5.94 | COC[C@@H](C)NC(=O)c1cc(-c2ccc(Cl)cc2Cl)cc(N(C)C(=O)C(C)C)c1 [Compound 63, 2′,4′-Dichloro-5-(isobutyryl-methyl-amino)-biphenyl-3-carboxylic acid ((R)-2-methoxy-1-methyl-ethyl)-amide] |
| 7.75 | CC(C)C(=O)N(C)c1cc(C(=O)NC(C)c2cnccn2)cc(-c2ccc(Cl)cn2)c1 (stereo not drawn) [Compound 67, 3-(5-Chloro-pyridin-2-yl)-5-(isobutyryl-methyl-amino)-N-(1-pyrazin-2-yl-ethyl)-benzamide] |
| 8.04 | CCC(C)C(=O)N(C)c1cc(C(=O)NC(C)c2cnccn2)cc(-c2ccc(C)cc2)c1 (stereo not drawn) [Compound 46, 4′-Methyl-5-[methyl-(2-methyl-butyryl)-amino]-biphenyl-3-carboxylic acid (1-pyrazin-2-yl-ethyl)-amide] |
| 6.88 | CCC(=O)N(C)c1cc(C(=O)N[C@H](C)CN2CCOCC2)cc(-c2ccc(C)cc2)c1 [Compound 19, 4′-Methyl-5-(methyl-propionyl-amino)-biphenyl-3-carboxylic acid ((R)-1-methyl-2-morpholin-4-yl-ethyl)-amide] |
| 6.86 | CC(C)C(=O)N(C)c1cc(C(=O)N[C@@H](C)CO)cc(-c2ccc(Cl)cn2)c1 [Compound 69, 3-(5-Chloro-pyridin-2-yl)-N-((S)-2-hydroxy-1-methyl-ethyl)-5-(isobutyryl-methyl-amino)-benzamide] |
